Data from US20220047773A1, “SELF-ELIMINATING COATINGS” (Interface Biologics, Inc., priority 2007, published 2022).

Assay: Partitioning in 1-octanol/PBS system
Assay type: physicochemical
Description: The partitioning of Compounds synthesized in Examples 1-13 was measured in a 1-octanol/PBS system. The partitioning correlates with the lipophilicity of the Compounds, and is used to predict the adsorption and distribution of Compounds under investigation. 1-octanol and PBS were thoroughly mixed to provide PBS-saturated 1-octanol in the top phase and 1-octanol-saturated PBS in the bottom phase. Solutions of Compounds 1, 2, 3, 6, 7, 8, 9, 10, 11, 12, 16, PTX, and SIBS (0.05 mL) were added to each vial of 1-octanol/PBS. The vials were rocked for 4 hours, ensuring good contact between the phases. An aliquot of the organic phase from each sample was then analyzed by GPC (THF mobile phase, RI), which had been calibrated using known concentrations of each compound. The area under the RI peak was used to estimate the concentration of each compound in the organic phase. The mass of each Compound was then used to calculate the weight percentage in organic phase by the following formula: (mass of Compound in 1-octanol phase/total mass)×100%. The partition coefficient was calculated according to the following formula: log([Compound in 1-octanol]/[Compound in PBS]). […]

## CC(=O)O[C@H]1C(=O)[C@@]2(C)[C@H]([C@H](OC(=O)c3ccccc3)[C@]3(O)C[C@H](OC(=O)[C@H](O)[C@@H](NC(=O)c4ccccc4)c4ccccc4)C(C)=C1C3(C)C)[C@]1(OC(C)=O)CO[C@@H]1C[C@@H]2O [PTX, paclitaxel, reference compound]
  logD at 4 h: 1
1-octanol/PBS, rocked 4 hours, GPC of organic phase
  wt % in 1-octanol: 94%
